These results are taken from ChEMBL document CHEMBL1127765, “16-propyl derivatives of estradiol as inhibitors of 17-hydroxysteroid dehydrogenase type 1” (Bioorg Med Chem Lett, 1994).

The target of assay [1] is T1, 17-beta-hydroxysteroid dehydrogenase type 1 (Homo sapiens, UniProt P14061).
T1 sequence (P14061 whole entry): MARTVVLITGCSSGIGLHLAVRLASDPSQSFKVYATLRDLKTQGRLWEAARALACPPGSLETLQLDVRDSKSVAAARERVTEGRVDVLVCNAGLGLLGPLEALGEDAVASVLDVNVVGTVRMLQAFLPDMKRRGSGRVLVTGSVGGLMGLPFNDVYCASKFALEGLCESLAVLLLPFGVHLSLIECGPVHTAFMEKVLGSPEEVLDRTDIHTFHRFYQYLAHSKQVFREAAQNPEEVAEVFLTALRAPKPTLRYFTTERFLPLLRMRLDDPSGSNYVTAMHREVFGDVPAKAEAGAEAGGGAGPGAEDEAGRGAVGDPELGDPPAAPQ
In words: Compound was tested for the inhibition of 17-beta-hydroxysteroid dehydrogenase type 1(17-beta-HSD type 1).

The target of assay [2] is T2, 17-beta-hydroxysteroid dehydrogenase type 1 (Homo sapiens) (UniProt P14061).
T2 sequence (whole entry): T1 sequence (P14061 whole entry)
In words: Compound was tested for the inhibition of 17-beta-hydroxysteroid dehydrogenase type 1(17-beta-HSD type 1) at 10 uM concentration.

For assay [3], the target named is T2, 17-beta-hydroxysteroid dehydrogenase type 1 (Homo sapiens). In words: Compound was tested for the inhibition of 17-beta-hydroxysteroid dehydrogenase type 1(17-beta-HSD type 1) at 1 uM concentration.

As usually defined, the IC50 is the concentration needed to halve the response being measured. A lower IC50 goes with greater potency in that assay. For orientation: inhibition means the relative decrease from the control value, in per cent. Higher therefore signals a response far below the control. With `C[C@]12CC[C@@H]3c4ccc(O)cc4CC[C@H]3[C@@H]1C[C@@H](CCCF)[C@@H]2O`, in assay [1], inhibition was half-maximal at 4300 nM (IC50). Further, the inhibition in assay [2] is 81%; in assay [3], 49%.
In the case of `CCC[C@@H]1C[C@H]2[C@@H]3CCc4cc(O)ccc4[C@H]3CC[C@]2(C)[C@H]1O`, the inhibition came out at 69% in assay [2] and 29% in assay [3].
For `C[C@]12CC[C@@H]3c4ccc(O)cc4CC[C@H]3[C@@H]1C[C@@H](CCCSC#N)[C@@H]2O`, in assay [1], 1150 nM corresponded to half-maximal inhibition (IC50). Moreover, the figures for the inhibition in assay [2] and in assay [3] were 95% and 82%, respectively.
As to `C=CC[C@@H]1C[C@H]2[C@@H]3CCc4cc(O)ccc4[C@H]3CC[C@]2(C)[C@H]1O`, the results for the inhibition in assay [2] and in assay [3] were 63% and 26%, respectively.
`C[C@]12CC[C@@H]3c4ccc(O)cc4CC[C@H]3[C@@H]1C[C@@H](CCCI)[C@@H]2O`: the IC50 in assay [1] is 420 nM. In addition, the figures for the inhibition in assay [2] and in assay [3] were 92% and 68%, respectively.
The like results for `C[C@]12CC[C@@H]3c4ccc(O)cc4CC[C@H]3[C@@H]1C[C@@H](CCCBr)[C@@H]2O` were, in that order, 460 nM, 94% and 70%.
The like results for `C[C@]12CC[C@@H]3c4ccc(O)cc4CC[C@H]3[C@@H]1C[C@@H](CCCCl)[C@@H]2O` were, in that order, 1000 nM, 92% and 88%.
On to `C[C@]12CC[C@@H]3c4ccc(O)cc4CC[C@H]3[C@@H]1C[C@@H](CCCO)[C@@H]2O`, for which the inhibition in assay [2] stood at 57%; in assay [3] it was 17%.
